Measured values as given in US8426596B2, “Process of producing bleach boosters” (BASF Aktiengesellschaft, priority 2005, dated 2013).
Where a name gives a salt, the structure may show the parent alone.

Experiments:
Type in all cases: biochemical
[1] = biological target: T1, Termamyl (alpha amylase) (Bacillus licheniformis, UniProt P06278); test: Organic Catalyst/Enzyme Compatibility Test (alpha amylase activity assay), Termamyl; conditions: (Ac/Ab)x100; peracetic acid 5.0 ppm; organic catalyst 0.5 ppm; 40° C.; sample at 7 min 45 s
T1 construct: purchased Novozymes, Denmark
T1 sequence (P06278 30-512): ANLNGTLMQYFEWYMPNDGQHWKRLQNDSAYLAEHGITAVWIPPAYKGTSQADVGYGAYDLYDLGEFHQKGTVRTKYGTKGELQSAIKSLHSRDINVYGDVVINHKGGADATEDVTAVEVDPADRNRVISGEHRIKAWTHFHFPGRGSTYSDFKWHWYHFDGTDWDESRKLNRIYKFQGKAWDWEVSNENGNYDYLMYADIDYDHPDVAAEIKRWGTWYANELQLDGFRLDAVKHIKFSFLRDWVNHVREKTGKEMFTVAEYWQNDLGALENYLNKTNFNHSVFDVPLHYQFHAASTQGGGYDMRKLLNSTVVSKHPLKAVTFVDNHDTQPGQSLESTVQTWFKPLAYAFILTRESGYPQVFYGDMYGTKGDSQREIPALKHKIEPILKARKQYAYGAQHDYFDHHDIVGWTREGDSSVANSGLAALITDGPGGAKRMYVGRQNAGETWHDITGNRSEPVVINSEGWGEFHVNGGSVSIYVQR
Method: (§1) Organic Catalyst/Enzyme Compatibility Test
(§2) The test described below uses an alpha amylase activity assay to measure the impact of organic catalysts on the enzyme.
(§3) Equipment. UV/Vis spectrophotometer capable of measuring @ 415 nm, heated magnetic stirrer capable of 40° C., 5 ml Luer lock syringe and filters (Acrodisc 0.45 ? μm), pH meter, and balance (4-place analytical).
(§4) Reagents. Merck Amylase Kit (Merck Eurolab, Cat. No. 1.19718.0001); Trizma Base (Sigma Cat # T-1503, or equivalent); Calcium Chloride Dihydrate (Sigma Cat # C-5080, or equivalent); Sodium Thiosulfate Pentahydrate (Sigma Cat # S-6672 or equivalent); Hydrochloric Acid (VWR Cat # JT9535-0, or equivalent); Hardness solution (CTC Group, 3.00 gr/cc or equivalent); Sodium Percarbonate; Peracetic Acid (Aldrich, Cat. #26933-6 or equivalent); Amylase enzymes: Termamyl, Natalase, and Duramyl (Novozymes, Denmark); Granular detergent matrix containing no enzyme, organic catalyst or bleaching agents.
(§5) 1.) Solution Preparation: Prepare the Following:
(§6) • a.) TRIS Assay Buffer. Prepare 1 liter of 0.1M TRIS buffer, 0.5% sodium thiosulphate (W/V), 0.11% calcium chloride (w/v) at pH 8.3. • b.) Blank Detergent Solution. Prepare one liter of 0.5% enzyme and bleach free granular detergent product in deionized water (W/V) that is 250 ppm H2O2 (0.77 gm percarbonate) and 10 gpg hardness (880 UI of hardness). • c.) Termamyl, Duramyl and Natalase Stock. Make 100 ml solutions each of a 0.1633 mg active Termamyl per ml TRIS Buffer, a 0.1159 mg active Natalase per ml TRIS Buffer, and a 0.1596 mg active Duramyl per ml TRIS Buffer. • d.) Organic catalyst stocks. Make a 500 ppm in methanol solution of μm. • e.) Peracetic acid stock. Make a 3955 ppm peracetic acid solution in deionized water. • f.) Amylase reagent. Follow Merck kit instructions for preparing flacons (containers) 1 and 2 using flacon 3 and subsequent mixing of flacons 1 and 2 to produce the final reagent used in the amylase activity analysis. 2.) Sample Analysis • a.) Analysis of sample with enzyme only: Add 100 ml of blank detergent solution to a 150 ml beaker. Place beaker on heated stir plate and bring temperature to 40° C. with stirring. Add Y μl of enzyme stock to the beaker where Y=612 μL for Duramyl, 306 μl for Termamyl, or 918 μl for Natalase. Spike only enzyme of interest. Stir sample for 1 minute. Start timer. At 7 minutes 45 seconds, pull a sample and filter it using a 0.45 μm syringe filter (5 ml syringe). Mix 6 μl of filtered sample with 250 μL of amylase reagent in a cuvette and place the cuvette in a UV/VIS spectrophotometer and monitor change in absorbance at 415 nm. Determine length of time (tE) to the nearest second required to obtain an absorbance reading of 1.0 for each enzyme. Use each enzyme's tE in Steps 2.)b.) and 2.)c.) below. • b.) Analysis of sample with enzyme and peracetic acid only. Follow Step 2.)a.) except after enzyme addition, allow solution to stir for 1 minute then add 127 μl of peracetic acid stock and start timer. Pull sample at 7 minutes 45 seconds as in Step 2.)a.). Once sample and reagent are mixed, record the absorbance at tE for the respective enzyme. Designate such absorbance Ab. • c.) Analysis of sample with enzyme, peracetic acid, and organic catalyst. […] Once sample and reagent are mixed, record the absorbance at tE for the respective enzyme. Designate such absorbance A, 3.) Calculate Enzyme Compatibility Value (ECV) • a.) Calculate the ECV for each specific enzyme: termamyl (ECVter), duramyl (ECVdur) and natalase (ECVnat). […]

[2] = tested on: Duramyl (alpha amylase); test: Organic Catalyst/Enzyme Compatibility Test (alpha amylase activity assay), Duramyl; conditions: (Ac/Ab)x100; peracetic acid 5.0 ppm; organic catalyst 0.5 ppm; 40° C.; sample at 7 min 45 s
Method: as §1, §2, §3, §4, §5, §6

[3] = tested on: Natalase (alpha amylase); test: Organic Catalyst/Enzyme Compatibility Test (alpha amylase activity assay), Natalase; conditions: (Ac/Ab)x100; peracetic acid 5.0 ppm; organic catalyst 0.5 ppm; 40° C.; sample at 7 min 45 s
Method: as §1, §2, §3, §4, §5, §6

[4] = tested on: Termamyl, Duramyl and Natalase (alpha amylases); test: Organic Catalyst/Enzyme Compatibility Test, average over the three amylases; conditions: ECV=(ECVter+ECVdur+ECVnat)/3; peracetic acid 5.0 ppm; organic catalyst 0.5 ppm
Method: as §1, §2, §3, §4, §5, §6

In the case of `CC(C)(C)OCC(C[N+]1=Cc2ccccc2CC1)OS(=O)(=O)[O-]` (centres unmarked) [Entry 1, Sulfuric acid mono-[2-(3,4-dihydro-isoquinolin-2-yl)-1-((1,1-di-methylethoxy)methyl)ethyl] ester, internal salt, reference compound], the “Enzyme Compatibility Value ECVter” value [1] is reported as 51, the “Enzyme Compatibility Value ECVdur” value [2] is reported as 86 and the “Enzyme Compatibility Value ECVnat” value [3] is reported as 58. The “Enzyme Compatibility Value ECV” value [4] was 65.
For `CCCCC(CC)COCC(C[N+]1=Cc2ccccc2CC1)OS(=O)(=O)[O-]` (centres unmarked) [Entry 2, Sulfuric acid mono-[2-(3,4-dihydro-isoquinolin-2-yl)-1-(2-ethyl-hexyloxymethyl)-ethyl] ester, internal salt, reference compound], the “Enzyme Compatibility Value ECVter” value [1] was 54, the “Enzyme Compatibility Value ECVdur” value [2] was 90 and the “Enzyme Compatibility Value ECVnat” value [3] was 57. For the same compound, the “Enzyme Compatibility Value ECV” value [4] was 67.
`Cc1ccc(CC2(Cc3ccc(C)cc3)C[N+](CCCS(=O)(=O)[O-])=Cc3ccccc32)cc1` [Entry 5, 3,4-dihydro-4,4-di(4-methylphenylmethyl)-2-(3-sulfopropyl)-isoquinolinium, internal salt] was tested, and the “Enzyme Compatibility Value ECVter” value [1] was 103, the “Enzyme Compatibility Value ECVdur” value [2] was 99 and the “Enzyme Compatibility Value ECVnat” value [3] was 99. For the same compound, the “Enzyme Compatibility Value ECV” value [4] was 100.
In the case of `O=S(=O)([O-])CCC[N+]1=Cc2ccccc2C(Cc2ccccc2)(Cc2ccccc2)C1` [Entry 4, 3,4-dihydro-4,4-dibenzyl-2-(3-sulfopropyl)isoquinolinium, Internal salt], the “Enzyme Compatibility Value ECVter” value [1] is reported as 102, the “Enzyme Compatibility Value ECVdur” value [2] is reported as 99 and the “Enzyme Compatibility Value ECVnat” value [3] is reported as 104. For the same compound, the “Enzyme Compatibility Value ECV” value [4] was 102.
For `O=S(=O)([O-])OCC[N+]1=Cc2ccccc2C(Cc2ccccc2)(Cc2ccccc2)C1` [Entry 3, 3,4-dihydro-4,4-di(phenylmethyl)-2-[2′-(sulfooxy)ethyl]-isoquinolinium, internal salt], the “Enzyme Compatibility Value ECVter” value [1] was 101, the “Enzyme Compatibility Value ECVdur” value [2] was 100 and the “Enzyme Compatibility Value ECVnat” value [3] was 103. For the same compound, the “Enzyme Compatibility Value ECV” value [4] was 101.
